Read-outs that look alike come from different tables or passages of the source.
Tests used:
OCI-LY10 = test: CTG Cell Viability Assay - OCI-LY10; assay type: cell-based, human; conditions: Homo sapiens, OCI-Ly10, 96 h, OCI-LY10, 4 days; read-out: CTG Cell Viability Assay - OCI-LY10: Average external-IC50
Outline: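 OCI-LY10 cells exposed to 9-dose, 1:3 dilutions from 10 μM top (0.2% DMSO) for 4 days at 37° C, 5% CO2. Viability by CellTiter-Glo luminescence; IC50 from three-parameter logistic fit.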

IRAK4 = IRAK4 (Homo sapiens (Human), UniProt Q9NWZ3); test: IRAK4 MSD degradation in OCI-LY10; assay type: cell-based
Chain of IRAK4 (Q9NWZ3 whole entry): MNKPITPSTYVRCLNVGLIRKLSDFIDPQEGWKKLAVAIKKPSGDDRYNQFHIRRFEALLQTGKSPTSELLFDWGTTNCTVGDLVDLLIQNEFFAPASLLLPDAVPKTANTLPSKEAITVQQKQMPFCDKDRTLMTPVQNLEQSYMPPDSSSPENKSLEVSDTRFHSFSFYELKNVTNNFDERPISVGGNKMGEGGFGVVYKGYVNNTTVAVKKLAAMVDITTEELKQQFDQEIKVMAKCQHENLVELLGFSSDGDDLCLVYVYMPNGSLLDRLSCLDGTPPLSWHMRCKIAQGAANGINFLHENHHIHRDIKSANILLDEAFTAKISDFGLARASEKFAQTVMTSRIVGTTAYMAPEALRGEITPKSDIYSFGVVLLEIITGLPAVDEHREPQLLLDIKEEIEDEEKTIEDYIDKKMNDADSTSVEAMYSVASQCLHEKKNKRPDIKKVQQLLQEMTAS
Outline: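 OCI-LY10 cells treated with 8-point 1:3 dilutions (top 1 to 10 μM final) for 4 to 24 h at 37° C. Lysate IRAK4 measured by MSD sandwich immunoassay (2H9 capture, Y279 detection, SULFO-TAG anti-rabbit). DC50 from three-parameter logistic fit.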

[1] = OCI-LY10, 4 hrs, MSD, read-out: IRAK4 MSD degradation in OCI-LY10 at 4 hrs: Average external-Abs DC50
[2] = OCI-LY10, 24 hrs, MSD, read-out: IRAK4 MSD degradation in OCI-LY10 at 24 hrs: Average external-Abs DC50
[3] = OCI-LY10, 4 hrs, read-out: IRAK4 MSD degradation in OCI-LY10 at 4 hrs: DC50
[4] = OCI-LY10, 24 hrs, read-out: IRAK4 MSD degradation in OCI-LY10 at 24 hrs: DC50

SMILES	IC50 (OCI-LY10)	DC50 (IRAK4; [1])	DC50 (IRAK4; [2])	DC50 (IRAK4; [3])	DC50 (IRAK4; [4])
CN(CCN1CCO[C@@H](CCNc2cccc3c2C(=O)N(C2CCC(=O)NC2=O)C3=O)C1)C[C@H]1CC[C@H](n2cc(NC(=O)c3cnn4ccc(N5C[C@H]6C[C@@H]5CO6)nc34)c(C(F)F)n2)CC1 (stereo partly shown) [I-337]	50 to 100 nM	100 to 1000 nM	10 to 100 nM		
Cn1c(=O)n(C2CCC(=O)NC2=O)c2ccc(CN3CCN(CCO[C@H]4C[C@H](N(C)C[C@H]5CC[C@H](n6cc(NC(=O)c7coc(-c8ccnc(NCC9CC9)c8)n7)c(C(F)F)n6)CC5)C4)CC3)cc21 (stereo partly shown) [I-252]	100 to 500 nM	< 10 nM			
CN(C[C@H]1CC[C@H](n2cc(NC(=O)c3cnn4ccc(N5C[C@H]6C[C@@H]5CO6)nc34)c(C(F)F)n2)CC1)C1CCN(CCNc2cccc3c2C(=O)N(C2CCC(=O)NC2=O)C3=O)CC1 (stereo partly shown) [I-367]	100 to 500 nM	10 to 100 nM			
O=C1CCC(N2C(=O)c3cccc(NCC(=O)N4CC5(CCN(C[C@H]6CC[C@H](n7cc(NC(=O)c8cnn9ccc(N%10CCOCC%10)nc89)c(C(F)F)n7)CC6)CC5)C4)c3C2=O)C(=O)N1 (stereo partly shown) [I-443]	< 50 nM			< 10 nM	< 10 nM
O=C1CCC(n2c3cccc(CCCOC4CCN(C[C@H]5CC[C@H](n6cc(NC(=O)c7cnn8ccc(N9CCOCC9)nc78)c(C(F)F)n6)CC5)CC4)c3c3cccnc32)C(=O)N1 (stereo partly shown) [I-196]	> 1000 nM	10 to 100 nM			
C=C(C)c1nn([C@H]2CC[C@H](CN(C)C3CCN(Cc4cccc5c4n(C)c(=O)n5C4CCC(=O)NC4=O)CC3)CC2)cc1NC(=O)c1cnn2ccc(NCC3CC3)nc12 (stereo partly shown) [I-173]	> 1000 nM	100 to 1000 nM			
CN1C(=O)CCC(N2C(=O)c3cccc(NCCCOCCCS(=O)(=O)N(C)C(=O)[C@H]4CC[C@H](n5cc(NC(=O)c6cnn7ccc(N8C[C@H]9C[C@@H]8CO9)nc67)c(C(F)F)n5)CC4)c3C2=O)C1=O (stereo in doubt) [I-490, N-[3-(difluoromethyl)-1-[4-[methyl-[3-[3-[[2-(1-methyl-2,6-dioxo-3-piperidyl)-1,3-dioxo-isoindolin-4-yl]amino]propoxy]propylsulfonyl]carbamoyl]cyclohexyl]pyrazol-4-yl]-5-(2-oxa-5-azabicyclo [2.2.1]heptan-5-yl)pyrazolo [1,5-a]pyrimidine-3-carboxamide]	> 1000 nM			100 to 1000 nM	> 1000 nM
CN(CCN1CCO[C@@H](CCNc2cccc3c2C(=O)N(C2CCC(=O)NC2=O)C3=O)C1)C[C@H]1CC[C@H](n2cc(NC(=O)c3coc(-c4ccnc(NCC5CC5)c4)n3)c(C(F)F)n2)CC1 (stereo partly shown) [I-339]	50 to 100 nM	10 to 100 nM	10 to 100 nM		
Cn1c(=O)n(C2CCC(=O)NC2=O)c2ccc(CCCOC3CCN(C[C@H]4CC[C@H](n5cc(NC(=O)c6cnn7ccc(N[C@@H]8CCCC[C@@H]8O)nc67)c(C(F)F)n5)CC4)CC3)cc21 (stereo partly shown) [I-280]	> 1000 nM	10 to 100 nM			
Cn1c(=O)n(C2CCC(=O)NC2=O)c2cccc(CN3CCC(O[C@H]4C[C@H](N(C)C[C@H]5CC[C@H](n6cc(NC(=O)c7coc(-c8ccnc(NCC9CC9)c8)n7)c(C(F)F)n6)CC5)C4)CC3)c21 (stereo partly shown) [I-249]	< 50 nM	10 to 100 nM			
O=C1CCC(N2C[C@@H](c3ccc(C#CCCOC4CCN(C[C@H]5CC[C@H](n6cc(NC(=O)c7cnn8ccc(N9CCC(O)CC9)nc78)c(C(F)F)n6)CC5)CC4)cc3)OC2=O)C(=O)N1 (stereo partly shown) [I-152]	> 1000 nM	10 to 100 nM			
CC(C)(O)c1nn([C@H]2CC[C@H](CN3CCC(OCCNc4cccc5c4C(=O)N(C4CCC(=O)NC4=O)C5=O)CC3)CC2)cc1NC(=O)c1cnn2ccc(N3CCOCC3)nc12 (stereo partly shown) [I-217]	50 to 100 nM	100 to 1000 nM	> 1000 nM		
Cc1nc2cccc(NCCCOC3CCN(C[C@H]4CC[C@H](n5cc(NC(=O)c6cnn7ccc(N8CCOCC8)nc67)c(C(F)F)n5)CC4)CC3)c2c(=O)n1C1CCC(=O)NC1=O (stereo partly shown) [I-211]	50 to 100 nM	> 1000 nM	> 1000 nM		
Cn1c(=O)n(C2CCC(=O)NC2=O)c2cccc(CCN3CC4(CCN(C[C@H]5CC[C@H](n6cc(NC(=O)c7cnn8ccc(N9CCOCC9)nc78)c(C(F)F)n6)CC5)CC4)C3)c21 (stereo partly shown) [I-183]	< 50 nM	< 10 nM	< 10 nM		
CN(CCOCCOCCOC12CC3CC(CC(C3)C1)C2)C[C@H]1CC[C@H](n2cc(NC(=O)c3cnn4ccc(N5CCNCC5)nc34)c(C(F)F)n2)CC1 [I-175]	> 1000 nM	> 1000 nM	> 1000 nM		
CN(Cc1ccc(CCNc2cccc3c2C(=O)N(C2CCC(=O)NC2=O)C3=O)cc1)C[C@H]1CC[C@H](n2cc(NC(=O)c3cnn4ccc(N5C[C@H]6C[C@@H]5CO6)nc34)c(C(F)F)n2)CC1 (stereo partly drawn) [I-341, N-[3-(difluoromethyl)-1-[4-[[[4-[2-[[2-(2,6-dioxo-3-piperidyl)-1,3-dioxo-isoindolin-4-yl]amino]ethyl]phenyl]methyl-methyl-amino]methyl]cyclohexyl]pyrazol-4-yl]-5-[(1R,4R)-2-oxa-5-azabicyclo [2.2.1]heptan-5-yl] pyrazolo [1,5-a] pyrimidine-3-carboxamide]	> 1000 nM	100 to 1000 nM	10 to 100 nM		
O=C1CCC(N2C(=O)c3cccc(OCCCOC4CCN(C[C@H]5CC[C@H](n6cc(NC(=O)c7cnn8ccc(N[C@@H]9CCCC[C@@H]9O)nc78)c(C(F)F)n6)CC5)CC4)c3C2=O)C(=O)N1 (stereo partly shown) [I-296]	> 1000 nM	10 to 100 nM			
CN(CCCOCCCNc1cccc2c1C(=O)N(C1CCC(=O)NC1=O)C2=O)C[C@H]1CC[C@H](n2cc(NC(=O)c3coc(-c4ccnc(N5CCOCC5)c4)n3)c(C(F)F)n2)CC1 (stereo partly shown) [I-397]	50 to 100 nM	100 to 1000 nM	100 to 1000 nM		
O=C1CCC(N2C(=O)c3cccc(NCCc4ccc(CCNC[C@H]5CC[C@H](n6cc(NC(=O)c7cnn8ccc(N9C[C@H]%10C[C@@H]9CO%10)nc78)c(C(F)F)n6)CC5)cc4)c3C2=O)C(=O)N1 (stereo partly drawn) [I-346, N-[3-(difluoromethyl)-1-[4-[[2-[4-[2-[[2-(2,6-dioxo-3-piperidyl)-1,3-dioxo-isoindolin-4-yl]amino]ethyl]phenyl]ethylamino]methyl]cyclohexyl]pyrazol-4-yl]-5-[(1R,4R)-2-oxa-5-azabicyclo[2.2.1]heptan-5-yl]pyrazolo[1,5-a]pyrimidine-3-carboxamide]	< 50 nM	> 1000 nM			
C[C@@H]1CN(c2ccn3ncc(C(=O)Nc4cn([C@H]5CC[C@H](CN6CCC(OCCCc7cccc8c7n(C)c(=O)n8C7CCC(=O)NC7=O)CC6)CC5)nc4C(F)F)c3n2)C[C@H](C)O1 (stereo partly drawn) [I-275, N-[3-(difluoromethyl)-1-[4-[[4-[3-[1-(2,6-dioxo-3-piperidyl)-3-methyl-2-oxo-benzimidazol-4-yl]propoxy]-1-piperidyl]methyl]cyclohexyl]pyrazol-4-yl]-5-[(2R,6S)-2,6-dimethylmorpholin-4-yl] pyrazolo[1,5-a] pyrimidine-3-carboxamide]	> 1000 nM	10 to 100 nM			
O=C1CCC(N2C(=O)c3cccc(NCCCOC[C@@H]4CN(Cc5ccc(-n6cc(NC(=O)c7coc(-c8ccnc(NCC9CC9)c8)n7)c(C(F)F)n6)cc5)CCO4)c3C2=O)C(=O)N1 (stereo partly shown) [I-393]	50 to 100 nM	100 to 1000 nM	10 to 100 nM		
Cc1ncsc1-c1ccc(CNC(=O)[C@@H]2C[C@@H](O)CN2C(=O)[C@@H](NC(=O)COCCOCCOCCOCC(=O)N2CCN(C3CCC(Nc4ncnc5cc(CC#N)ccc45)CC3)CC2)C(C)(C)C)cc1 (stereo partly shown) [I-49]	> 1000 nM	> 1000 nM			
